From ChEMBL document CHEMBL4402608 (J Med Chem, 2020)
pKi: −log10 of the molar value.

Legend:
[1] = target: dopamine D5 receptor (Homo sapiens, UniProt P21918); assay: Displacement of [3H]-SCH23390 from recombinant human D5 receptor transiently expressed in HEKT cell membranes at 10 uM measured after 90 mins by microbeta scintillation counting method relative to control; details: probe [3H]-SCH23390
[2] = target: muscarinic M1 receptor (Homo sapiens, UniProt P11229); assay: Displacement of [3H]-QNB/[3H]-NMS from human muscarinic M1 receptor expressed in stable CHO cell membranes at 10 uM after 90 mins by microbeta scintillation counting method relative to control; details: probe [3H]-QNB/[3H]-NMS
[3] = target: T1, Alpha-1A adrenergic receptor (Homo sapiens, UniProt P35348); assay: Displacement of [3H]-prazosin from recombinant human alpha1A adrenergic receptor at 10 uM measured after 90 mins by microbeta scintillation counting method relative to control; details: probe [3H]-prazosin
T1 sequence (P35348 whole entry): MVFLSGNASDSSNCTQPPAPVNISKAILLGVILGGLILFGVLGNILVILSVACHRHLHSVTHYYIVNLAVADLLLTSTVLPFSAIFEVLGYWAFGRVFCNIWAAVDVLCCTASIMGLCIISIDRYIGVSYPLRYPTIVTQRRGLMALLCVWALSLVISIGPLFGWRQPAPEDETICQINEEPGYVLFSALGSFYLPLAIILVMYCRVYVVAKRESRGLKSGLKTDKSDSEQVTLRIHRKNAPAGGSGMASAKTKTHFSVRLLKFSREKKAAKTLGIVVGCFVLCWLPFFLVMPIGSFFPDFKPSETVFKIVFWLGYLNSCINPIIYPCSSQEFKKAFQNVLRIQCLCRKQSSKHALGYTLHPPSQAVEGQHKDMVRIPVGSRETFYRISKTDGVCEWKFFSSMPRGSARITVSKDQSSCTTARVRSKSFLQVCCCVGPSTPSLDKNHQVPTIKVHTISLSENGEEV

[4] = target: Histamine H4 receptor (Homo sapiens, UniProt Q9H3N8); assay: Displacement of [3H]-Histamine from recombinant human histamine H4 receptor expressed in HEKT cell membranes at 10 uM measured after 90 mins by microbeta scintillation counting method relative to control; details: probe [3H]-Histamine
[5] = target: T2, Alpha-1B adrenergic receptor (Homo sapiens, UniProt P35368); assay: Displacement of [3H]-prazosin from recombinant human alpha1B adrenergic receptor transiently expressed in HEKT cell membranes measured after 90 mins by microbeta scintillation counting method
T2 sequence (P35368 whole entry): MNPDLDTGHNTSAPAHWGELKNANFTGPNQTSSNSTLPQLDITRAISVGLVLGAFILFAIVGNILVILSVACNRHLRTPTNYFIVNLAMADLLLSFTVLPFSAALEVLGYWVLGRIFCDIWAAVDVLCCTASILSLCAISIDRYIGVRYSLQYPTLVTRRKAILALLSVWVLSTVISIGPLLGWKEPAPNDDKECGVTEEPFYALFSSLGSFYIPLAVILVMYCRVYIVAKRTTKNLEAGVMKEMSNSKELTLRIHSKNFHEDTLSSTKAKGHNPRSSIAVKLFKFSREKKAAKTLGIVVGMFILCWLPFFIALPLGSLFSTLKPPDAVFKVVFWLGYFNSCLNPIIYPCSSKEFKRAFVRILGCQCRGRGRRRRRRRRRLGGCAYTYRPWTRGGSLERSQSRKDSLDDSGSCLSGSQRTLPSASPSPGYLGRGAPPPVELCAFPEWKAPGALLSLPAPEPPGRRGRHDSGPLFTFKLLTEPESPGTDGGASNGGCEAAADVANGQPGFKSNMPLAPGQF

[6] = target: dopamine D4 receptor (Homo sapiens, UniProt P21917); assay: Displacement of [3H]-N-methylspiperone from recombinant human D4 receptor stably expressed in HEK cell membranes at 10 uM measured after 90 mins by microbeta scintillation counting method relative to control; details: probe [3H]-N-methylspiperone
[7] = target: Histamine H2 receptor (Homo sapiens, UniProt P25021); assay: Displacement of [125I]-Iodo-aminopotentidine from human histamine H2 receptor expressed in stable HEK cell membranes at 10 uM after 90 mins by microbeta scintillation counting method relative to control; details: probe [125I]-Iodo-aminopotentidine
[8] = target: 5-hydroxytryptamine receptor 1A (Homo sapiens, UniProt P08908); assay: Displacement of [3H]-Way100635 from recombinant human 5HT1A receptor stably expressed in CHO cell membranes measured after 90 mins by microbeta scintillation counting method
[9] = target: 5-hydroxytryptamine receptor 7 (Homo sapiens, UniProt P34969); assay: Displacement of [3H]-LSD from recombinant human 5HT7A receptor stably expressed in HEK cell membranes measured after 90 mins by microbeta scintillation counting method
[10] = target: 5HT3 receptor (5-hydroxytryptamine receptor 3A) (Homo sapiens, UniProt P46098); assay: Displacement of [3H]GR65630 from recombinant human 5HT3 receptor transiently expressed in HEKT cell membranes at 10 uM measured after 90 mins by microbeta scintillation counting method relative to control; details: probe [3H]GR65630
[11] = target: dopamine D2 receptor (Homo sapiens, UniProt P14416); assay: Displacement of [3H]-N-methylspiperone from recombinant human D2 receptor stably expressed in fibroblast cell membranes at 10 uM measured after 90 mins by microbeta scintillation counting method relative to control; details: probe [3H]-N-methylspiperone
[12] = target: 5HT6 receptor (Homo sapiens, UniProt P50406); assay: Displacement of [3H]-LSD from recombinant human 5HT6 receptor stably expressed in HEK cell membranes at 10 uM measured after 90 mins by microbeta scintillation counting method relative to control; details: probe [3H]-LSD
[13] = target: Sodium-dependent noradrenaline transporter (Homo sapiens, UniProt P23975); assay: Displacement of [3H]-Nisoxetine from human NET receptor expressed in stable HEK cell membranes after 90 mins by microbeta scintillation counting method
[14] = target: T3, Histamine H1 receptor (Homo sapiens, UniProt P35367); assay: Displacement of [3H]-pyrilamine from human histamine H1 receptor expressed in stable HEK cell membranes at 10 uM after 90 mins by microbeta scintillation counting method relative to control; details: probe [3H]-pyrilamine
[15] = target: Histamine H3 receptor (Homo sapiens, UniProt Q9Y5N1); assay: Displacement of [3H]-alpha-methylhistamine from recombinant human histamine H3 receptor expressed in HEK Flp-In cell membranes measured after 90 mins by microbeta scintillation counting method
[16] = target: 5HT1D receptor (Homo sapiens, UniProt P28221); assay: Displacement of [3H]5-CT from recombinant human 5HT1D receptor transiently expressed in HEKT cell membranes at 10 uM measured after 90 mins by microbeta scintillation counting method relative to control; details: probe [3H]5-CT
[17] = target: 5HT2B receptor (Homo sapiens, UniProt P41595); assay: Displacement of [3H]-LSD from recombinant human 5HT2B receptor stably expressed in HEK cell membranes at 10 uM measured after 90 mins by microbeta scintillation counting method relative to control; details: probe [3H]-LSD
[18] = target: Sodium-dependent dopamine transporter (Homo sapiens, UniProt Q01959); assay: Displacement of [3H]-Win35428 from human DAT expressed in stable HEK cell membranes after 90 mins by microbeta scintillation counting method
[19] = target: T3, Histamine H1 receptor; assay: Displacement of [3H]-pyrilamine from human histamine H1 receptor expressed in stable HEK cell membranes after 90 mins by microbeta scintillation counting method

Structure (SMILES)	inhibition at […], 10 µM [1] [%]	inhibition at […], 10 µM [2] [%]	inhibition at […], 10 µM [3] [%]	inhibition at […], 10 µM [4] [%]	inhibition at […], 10 µM [6] [%]	inhibition at […], 10 µM [7] [%]	pKi [8]	pKi [9]	inhibition at […], 10 µM [10] [%]	inhibition at […], 10 µM [11] [%]	inhibition at […], 10 µM [12] [%]	inhibition at […], 10 µM [14] [%]	inhibition at […], 10 µM [16] [%]	inhibition at […], 10 µM [17] [%]	other results
CCCN[C@H]1CCc2nc(N)sc2C1 [PRAMIPEXOLE]	> 50	> 50	> 50	> 50	> 50	> 50	5.19	5.93	> 50	> 50	> 50	< 50	> 50	< 50	Ki [5]: Not Active; Ki [13]: Not Active; Ki [15]: Not Active; Ki [18]: Not Active; Ki [19]: Not Active
CCCN(CC[C@]1(O)C[C@H](NC(=O)c2ccc3ccccc3c2)C1)[C@H]1CCc2nc(N)sc2C1	< 50	< 50	< 50	< 50	> 50	> 50	6.15	6.11	< 50	> 50	< 50	> 50	< 50	> 50	pKi ([5]; read-out: Ki): 6.18; pKi ([13]; read-out: Ki): 6.36; pKi ([15]; read-out: Ki): 6.05; pKi ([18]; read-out: Ki): 6.69; pKi ([19]; read-out: Ki): 6.96
